The values below come from patent US9133115B2 (ACHILLION PHARMACEUTICALS, INC., priority 2008, dated 2015).

A value given as a limit tells only on which side of the number the result lay.

For this assay, the system named is HCV replicon. The assay is described as follows: HCV replicon replication assay (NPT ELISA) in Huh-7 replicon-containing cells. It is filed as cell-based. As to conditions: Hepatitis C virus, 72 h; HCV replicon in Huh-7 cells, three days incubation; read-out: EC50. The essentials:
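Replication was scored by capture ELISA of neomycin phosphotransferase, whose level tracks replicon replication, after graded compound treatment. The cells were Huh-7 harbouring an HCV-IRES/neo/EMCV-IRES/NS3–NS5B/3′-NTR replicon, plated at 6000-7500 cells/well and dosed 24 h later at 60-70% confluence; interferon alpha was the positive control.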
Background: A replicon is a self-replicating genome or part of one, used to study replication in cells.
For orientation: EC50 means the concentration that produces a half-maximal response. As for `CCC[C@H](NC(=O)[C@@H]1C[C@@H](Oc2cc(-c3ccccc3)nc3cc(OC)ccc23)CN1C(=O)[C@@H](CC(=O)N1CCCCC1)C(C)(C)C)C(=O)NS(=O)(=O)C1CC1` [Compound 113, (2S,4R)-1-((S)-2-tert-butyl-4-oxo-4-(piperidin-1-yl)butanoyl)-N-((S)-1-(cyclopropanesulfon-amido)-1-oxopentan-2-yl)-4-(7-methoxy-2-phenylquinolin-4-yloxy)pyrrolidine-2-carboxamide], the EC50 is 1000 to 10000 nM.

Take `C=CC1C[C@]1(NC(=O)[C@@H]1C[C@@H](Oc2cc(-c3ccccc3)nc3cc(OC)ccc23)CN1C(=O)[C@@H](CC(=O)N1CCCC(C(F)(F)F)C1)C(C)(C)C)C(=O)NS(=O)(=O)C1CC1` (stereo partly drawn) [Compound 162, (2S,4R)-1-((2S)-2-tert-butyl-4-oxo-4-(3-(trifluoromethyl)pi-peridin-1-yl)butanoyl)-N-((1R,2S)-1-(cyclopropylsulfonyl-carbamoyl)-2-vinylcyclopropyl)-4-(7-methoxy-2-phenylquinolin-4-yloxy)pyrrolidine-2-carboxamide]: the EC50 was less than 1000 nM.

`C=C[C@@H]1C[C@]1(NC(=O)[C@@H]1C[C@@H](Oc2cc(-c3ccccc3)nc3cc(OC)ccc23)CN1C(=O)[C@@H](CC(=O)N1C(C(=O)O)CC2CCCCC21)C(C)(C)C)C(=O)NS(=O)(=O)C1CC1` (stereo partly drawn) [Compound 142, 1-((S)-3-((2S,4R)-2-((1R,2S)-1-(cyclo-propylsulfonyl-carbamoyl)-2-vinyl-cyclopropyl-carbamoyl)-4-(7-methoxy-2-phenylquinolin-4-yloxy)pyrrolidine-1-carbonyl)-4,4-dimethylpentano-yl)octahydro-1H-indole-2-carboxylic acid]: the EC50 was less than 1000 nM.

Consider `C=C[C@@H]1C[C@]1(NC(=O)[C@@H]1C[C@@H](Oc2cc(-c3ccccc3)nc3cc(OC)ccc23)CN1C(=O)[C@@H](CC(=O)N1CCCC(F)C1)C(C)(C)C)C(=O)NS(=O)(=O)C1CC1` (stereo partly drawn) [Compound 83, (2S,4R)-1-((2S)-2-tert-butyl-4-(3-fluoropiperidin-1-yl)-4-oxobutanoyl)-N-((1R,2S)-1-(cyclopropyl-sulfonylcarbamoyl)-2-vinylcyclopropyl)-4-(7-methoxy-2-phenylquinolin-4-yloxy)pyrrolidine-2-carboxamide], for which the EC50 was less than 1000 nM.

For the compound `C=C[C@@H]1C[C@]1(NC(=O)[C@@H]1C[C@@H](Oc2cc(-c3nc(C(C)C)cs3)nc3cc(OC)ccc23)CN1C(=O)[C@@H](CC(=O)N1CCCC(F)(F)C1)C(C)(C)C)C(=O)NS(=O)(=O)C1CC1` [Compound 251, (2S,4R)-1-((S)-2-tert-butyl-4-(3,3-difluoropiperidin-1-yl)-4-oxobutanoyl)-N-((2S)-1-(cyclopropyl-sulfonylcarbamoyl)-2-vinylcyclopropyl)-4-(2-(4-isopropylthiazol-2-yl)-7-methoxyquinolin-4-yloxy)pyrrolidine-2-carboxamide], the EC50 is less than 1000 nM.

On to `C=C[C@@H]1C[C@]1(NC(=O)[C@@H]1C[C@@H](Oc2cc(-c3ccccn3)nc3c(Cl)c(OC)ccc23)CN1C(=O)[C@@H](CC(=O)N1CCC(C(F)(F)F)CC1)C(C)(C)C)C(=O)NS(=O)(=O)C1CC1` [Compound 208, (2S,4R)-1-((S)-2-tert-butyl-4-oxo-4-(4-(trifluoro-methyl)piperidin-1-yl)butanoyl)-4-(8-chloro-7-methoxy-2-(pyridin-2-yl)quinolin-4-yloxy)-N-((1R)-1-(cyclopropyl-sulfonylcarbamoyl)-2-vinylcyclo-propyl)pyrrolidine-2-carboxamide], for which the EC50 is less than 1000 nM.

In the case of `C=C[C@@H]1C[C@]1(NC(=O)[C@@H]1C[C@@H](Oc2cc(-c3ccccn3)nc3c4c(ccc23)CCC4)CN1C(=O)[C@@H](CC(=O)N1CCC(C(F)(F)F)CC1)C(C)(C)C)C(=O)NS(=O)(=O)C1CC1` [Compound 237, (2S,4R)-1-((S)-2-tert-butyl-4-oxo-4-(4-(trifluoro-methyl)piperidin-1-yl)butanoyl)-N-((2S)-1-(cyclopropyl-sulfonylcarbamoyl)-2-vinylcyclopropyl)-4-(2-(pyridin-2-yl)-8,9-dihydro-7H-cyclopenta[h]quino-lin-4-yloxy)pyrrolidine-2-carboxamide], the EC50 was less than 1000 nM.

In the case of `C=C[C@@H]1C[C@]1(NC(=O)[C@@H]1C[C@@H](Oc2cc(-c3ccccc3)nc3cc(OC)ccc23)CN1C(=O)[C@@H](CC(=O)N1CCCCC1)C(C)(C)C)C(=O)N(C1CC1)S(N)(=O)=O` [Compound 107, (2S,4R)-1-((S)-2-tert-butyl-4-oxo-4-(piperidin-1-yl)butanoyl)-N-((1R,2S)-1-(N-cyclopropyl-sulfamoyl-carbamoyl)-2-vinylcyclopropyl)-4-(7-methoxy-2-phenylquinolin-4-yloxy)pyrrolidine-2-carboxamide], the EC50 was less than 1000 nM.

On to `C=C[C@@H]1C[C@]1(NC(=O)[C@@H]1C[C@@H](Oc2cc(-c3ccccc3)nc3cc(OC)ccc23)CN1C(=O)[C@@H](CC(=O)N1CCCCC1c1cc(-c2ccccc2)[nH]n1)C(C)(C)C)C(=O)NS(=O)(=O)C1CC1` (stereo partly drawn) [Compound 232, (2S,4R)-1-((2S)-2-tert-butyl-4-oxo-4-(2-(5-phenyl-1H-pyrazol-3-yl)piperidin-1-yl)butanoyl)-N-((2S)-1-(cyclopropyl-sulfonylcarbamoyl)-2-vinylcyclopropyl)-4-(7-methoxy-2-phenylquinolin-4-yloxy)pyrrolidine-2-carboxamide], for which the EC50 is less than 1000 nM.

With `COc1ccc2c(O[C@@H]3C[C@@H](C(=O)NC(C)(C)C(=O)NS(=O)(=O)C4CC4)N(C(=O)[C@@H](CC(=O)N4CCCCC4)C(C)(C)C)C3)cc(-c3ccccc3)nc2c1` [Compound 111, (2S,4R)-1-((S)-2-tert-butyl-4-oxo-4-(piperidin-1-yl)butanoyl)-N-(1-(cyclopropane-sulfonamido)-2-methyl-1-oxopropan-2-yl)-4-(7-methoxy-2-phenylquinolin-4-yloxy)pyrrolidine-2-carboxamide], the EC50 was in the range of 1000 to 10000 nM.

With `C=CC1C[C@]1(NC(=O)[C@@H]1C[C@@H](Oc2cc(-c3ccccc3)nc3cc(OC)ccc23)CN1C(=O)[C@@H](CC(=O)N1CCCCC1)c1ccccc1)C(=O)NS(=O)(=O)C1CC1` (stereo partly drawn) [Compound 59, (2S,4R)-N-((1R,2R)-1-(cyclopropyl-sulfonylcarbamoyl)-2-vinylcyclopropyl)-4-(7-methoxy-2-phenylquinolin-4-yloxy)-1-((S)-4-oxo-2-phenyl-4-(piperidin-1-yl)butanoyl)pyr-rolidine-2-carboxamide], the EC50 is less than 1000 nM.

Consider `C=C[C@@H]1C[C@]1(NC(=O)[C@@H]1C[C@@H](Oc2cc(-c3nc(C(C)C)cs3)nc3cc(OC)ccc23)CN1C(=O)[C@@H](CC(=O)N1CCCCC1)C(C)(C)C)C(=O)NS(=O)(=O)C1CC1` [Compound 230, (2S,4R)-1-((S)-2-tert-butyl-4-oxo-4-(piperidin-1-yl)butanoyl)-N-((1R)-1-(cyclopropyl-sulfonylcarbamoyl)-2-vinylcyclopropyl)-4-(2-(4-isopropylthiazol-2-yl)-7-methoxyquinolin-4-yloxy)pyrrolidine-2-carboxamide], for which the EC50 was less than 1000 nM.

Consider `C=CC1CC1(NC(=O)[C@@H]1C[C@@H](Oc2cc(-c3ccccc3)nc3cc(OC)ccc23)CN1C(=O)[C@@H](CC(=O)N1CCCC(C(N)=O)C1)C(C)(C)C)C(=O)NS(=O)(=O)C1CC1` (stereo partly drawn) [Compound 45, 1-((3S)-3-((2S,4R)-2-(1-(cyclopropyl-sulfonylcarbamoyl)-2-vinylcyclopropyl-carbamoyl)-4-(7-methoxy-2-phenylquinolin-4-yloxy)pyrrolidine-1-carbonyl)-4,4-dimethylpentano-yl)piperidine-3-carboxamide], for which the EC50 fell in the range of 1000 to 10000 nM.

As to `C=C[C@@H]1C[C@]1(NC(=O)[C@@H]1C[C@@H](Oc2cc(-c3ccccn3)nc3cc(OC)ccc23)CN1C(=O)[C@@H](CC(=O)N1CC2CC3CC(C2)CC1C3)C(C)(C)C)C(=O)NS(=O)(=O)C1CC1` [Compound 221], the EC50 is greater than 10000 nM.

With `C=C[C@@H]1C[C@]1(NC(=O)[C@@H]1C[C@@H](Oc2cc(-c3ccccn3)nc3c(Cl)c(OC)ccc23)CN1C(=O)[C@@H](CC(=O)N1CCC(F)(F)C1)C(C)(C)C)C(=O)NS(=O)(=O)C1CC1` [Compound 206, (2S,4R)-1-((S)-2-tert-butyl-4-(3,3-difluoropyrrolidin-1-yl)-4-oxobutanoyl)-4-(8-chloro-7-methoxy-2-(pyridin-2-yl)quinolin-4-yloxy)-N-((1R)-1-(cyclopropylsulfonyl-carbamoyl)-2-vinylcyclopropyl)pyr-rolidine-2-carboxamide], the EC50 was less than 1000 nM.

For `C=C[C@@H]1C[C@]1(NC(=O)[C@@H]1C[C@@H](NC(=O)c2cc(-c3ccccc3)nc3ccccc23)CN1C(=O)[C@@H](CC(=O)N1CCCCCC1)C(C)(C)C)C(=O)NS(=O)(=O)C1CC1` [Compound 203, N-((3R,5S)-1-((S)-4-(azepan-1-yl)-2-tert-butyl-4-oxobutanoyl)-5-((1R,2S)-1-(cyclo-propylsulfonyl-carbamoyl)-2-vinylcyclopropyl-carbamoyl)pyrrolidin-3-yl)-2-phenylquinoline-4-carboxamide], the EC50 is less than 1000 nM.

Consider `C=CC1CC1(NC(=O)C1C[C@@H](Oc2cc(-c3ccccc3)nc3cc(OC)ccc23)CN1C(=O)[C@@H](CC(=O)N1CCCCC1)C1CCCCC1)C(=O)NS(=O)(=O)C1CC1` (stereo partly drawn) [Compound 53, (4R)-1-((S)-2-cyclohexyl-4-oxo-4-(piperidin-1-yl)butanoyl)-N-(1-(cyclopropyl-sulfonylcarbamoyl)-2-vinylcyclopropyl)-4-(7-methoxy-2-phenylquinolin-4-yloxy)pyrrolidine-2-carboxamide], for which the concentration for a half-maximal effect (EC50) was less than 1000 nM.

As for `C=C[C@@H]1C[C@]1(NC(=O)[C@@H]1C[C@@H](OC(=O)N2c3ccccc3Oc3ccccc32)CN1C(=O)[C@@H](CC(=O)N1CCCCC1)C(C)(C)C)C(=O)NS(=O)(=O)C1CC1` [Compound 154, (3R,5S)-1-((S)-2-tert-butyl-4-oxo-4-(piperidin-1-yl)butanoyl)-5-((1R,2S)-1-(cyclo-propylsulfonyl-carbamoyl)-2-vinyl-cyclopropyl-carbamoyl)pyrrolidin-3-yl 10H-phenoxazine-10-carboxylate], the EC50 lay within 1000 to 10000 nM.
